Measured values taken from patent publication US20120329787A1, “FUNGICIDAL PYRANONES AND OXAZINONES” (E.I. DU PONT DE NEMOURS AND COMPANY, priority 2011, published 2012).
Marks after values point to notes of the source that are not given here.

Experiments:
Type in all cases: in vivo
Septoria nodorum = assay: Test E: Septoria glume blotch, spray on wheat seedlings the day before inoculation; settings: 200 ppm test suspension; for pest or weed control at 200 ppm: Parastagonospora nodorum, 264 h, read-out: Test E rating (100 = 100% disease control, 0 = no disease control)
Source text: General protocol for preparing test suspensions for Tests A-I: the test compounds were first dissolved in acetone in an amount equal to 3% of the final volume and then suspended at the desired concentration (in ppm) in acetone and purified water (50/50 mix by volume) containing 250 ppm of the surfactant Trem® 014 (polyhydric alcohol esters). The resulting test suspensions were then used in Tests A-I. Spraying a 200 ppm test suspension to the point of run-off on the test plants was the equivalent of a rate of 500 g/ha. […] (An asterisk “*” next to the rating value indicates a 40 ppm test suspension was used.) The test suspension was sprayed to the point of run-off on wheat seedlings. […] A dash (-) indicates no test results. All results are for 200 ppm except where followed by an asterisk “*”, which indicates a 40 ppm.

Alternaria solani = assay: Test B: tomato early blight, spray on tomato seedlings the day before inoculation; settings: 200 ppm test suspension; for pest or weed control at 200 ppm: Alternaria solani, 168 h, read-out: Test B rating (100 = 100% disease control, 0 = no disease control)
Source text: General protocol for preparing test suspensions for Tests A-I: the test compounds were first dissolved in acetone in an amount equal to 3% of the final volume and then suspended at the desired concentration (in ppm) in acetone and purified water (50/50 mix by volume) containing 250 ppm of the surfactant Trem® 014 (polyhydric alcohol esters). The resulting test suspensions were then used in Tests A-I. Spraying a 200 ppm test suspension to the point of run-off on the test plants was the equivalent of a rate of 500 g/ha. […] (An asterisk “*” next to the rating value indicates a 40 ppm test suspension was used.) The test suspension was sprayed to the point of run-off on tomato seedlings. The following day, the seedlings were inoculated with a spore suspension of Alternaria solani (the causal agent of tomato early blight) and incubated in a saturated atmosphere at 27° C. for 48 h, and then moved to a growth chamber at 20° C. for 5 days, after which time visual disease ratings were made. […] A dash (-) indicates no test results. All results are for 200 ppm except where followed by an asterisk “*”, which indicates a 40 ppm.

[1] = tested on: Puccinia recondita f. sp. tritici; assay: Test G: wheat leaf rust, spray on wheat seedlings after inoculation (curative); settings: 200 ppm test suspension, sprayed after inoculation; for pest or weed control at 200 ppm: Puccinia recondita, 96 h, read-out: Test G rating (100 = 100% disease control, 0 = no disease control)
Source text: General protocol for preparing test suspensions for Tests A-I: the test compounds were first dissolved in acetone in an amount equal to 3% of the final volume and then suspended at the desired concentration (in ppm) in acetone and purified water (50/50 mix by volume) containing 250 ppm of the surfactant Trem® 014 (polyhydric alcohol esters). The resulting test suspensions were then used in Tests A-I. Spraying a 200 ppm test suspension to the point of run-off on the test plants was the equivalent of a rate of 500 g/ha. […] (An asterisk “*” next to the rating value indicates a 40 ppm test suspension was used.) Wheat seedlings were inoculated with a spore suspension of Puccinia recondita f. sp. tritici (the causal agent of wheat leaf rust) and incubated in a saturated atmosphere at 20° C. for 24 h, and then moved to a growth chamber at 20° C. for 2 days. At the end of this time, the test suspension was sprayed to the point of run-off, and then the seedlings were moved to a growth chamber at 20° C. for 4 days after which time visual disease ratings were made. […] A dash (-) indicates no test results. All results are for 200 ppm except where followed by an asterisk “*”, which indicates a 40 ppm.

[2] = tested on: Puccinia recondita f. sp. tritici; assay: Test H: wheat leaf rust, spray on wheat seedlings the day before inoculation; settings: 200 ppm test suspension, sprayed before inoculation; for pest or weed control at 200 ppm: Puccinia recondita, 168 h, read-out: Test H rating (100 = 100% disease control, 0 = no disease control)
Source text: General protocol for preparing test suspensions for Tests A-I: the test compounds were first dissolved in acetone in an amount equal to 3% of the final volume and then suspended at the desired concentration (in ppm) in acetone and purified water (50/50 mix by volume) containing 250 ppm of the surfactant Trem® 014 (polyhydric alcohol esters). The resulting test suspensions were then used in Tests A-I. Spraying a 200 ppm test suspension to the point of run-off on the test plants was the equivalent of a rate of 500 g/ha. […] (An asterisk “*” next to the rating value indicates a 40 ppm test suspension was used.) The test suspension was sprayed to the point of run-off on wheat seedlings. The following day, the seedlings were inoculated with a spore suspension of Puccinia recondita f. sp. tritici (the causal agent of wheat leaf rust) and incubated in a saturated atmosphere at 20° C. for 24 h, and then moved to a growth chamber at 20° C. for 6 days, after which time visual disease ratings were made Results for Tests A-I are given in Table A. […] A dash (-) indicates no test results. All results are for 200 ppm except where followed by an asterisk “*”, which indicates a 40 ppm.

Botrytis cinerea = assay: Test A: tomato Botrytis, spray on tomato seedlings the day before inoculation; settings: 200 ppm test suspension; for pest or weed control at 200 ppm: Botrytis cinerea, 120 h, read-out: Test A rating (100 = 100% disease control, 0 = no disease control)
Source text: General protocol for preparing test suspensions for Tests A-I: the test compounds were first dissolved in acetone in an amount equal to 3% of the final volume and then suspended at the desired concentration (in ppm) in acetone and purified water (50/50 mix by volume) containing 250 ppm of the surfactant Trem® 014 (polyhydric alcohol esters). The resulting test suspensions were then used in Tests A-I. Spraying a 200 ppm test suspension to the point of run-off on the test plants was the equivalent of a rate of 500 g/ha. […] (An asterisk “*” next to the rating value indicates a 40 ppm test suspension was used.) The test suspension was sprayed to the point of run-off on tomato seedlings. The following day, the seedlings were inoculated with a spore suspension of Botrytis cinerea (the causal agent of tomato Botrytis) and incubated in a saturated atmosphere at 20° C. for 48 h, and then moved to a growth chamber at 24° C. for 3 additional days, after which time visual disease ratings were made. […] A dash (-) indicates no test results. All results are for 200 ppm except where followed by an asterisk “*”, which indicates a 40 ppm.

[3] = tested on: Erysiphe graminis f. sp. tritici; assay: Test I: wheat powdery mildew, spray on wheat seedlings the day before inoculation; settings: 200 ppm test suspension; for pest or weed control at 200 ppm: Blumeria graminis, 168 h, read-out: Test I rating (100 = 100% disease control, 0 = no disease control)
Source text: General protocol for preparing test suspensions for Tests A-I: the test compounds were first dissolved in acetone in an amount equal to 3% of the final volume and then suspended at the desired concentration (in ppm) in acetone and purified water (50/50 mix by volume) containing 250 ppm of the surfactant Trem® 014 (polyhydric alcohol esters). The resulting test suspensions were then used in Tests A-I. Spraying a 200 ppm test suspension to the point of run-off on the test plants was the equivalent of a rate of 500 g/ha. […] (An asterisk “*” next to the rating value indicates a 40 ppm test suspension was used.) The test suspension was sprayed to the point of run-off on wheat seedlings. The following day, the seedlings were inoculated with a spore dust of Erysiphe graminis f. sp. tritici, (the causal agent of wheat powdery mildew) and incubated in a growth chamber at 20° C. for 7 days, after which time visual disease ratings were made. […] A dash (-) indicates no test results. All results are for 200 ppm except where followed by an asterisk “*”, which indicates a 40 ppm.

Septoria tritici = assay: Test F: wheat leaf blotch, spray on wheat seedlings the day before inoculation; settings: for pest or weed control at 200 ppm: Zymoseptoria tritici, 504 h, read-out: Test F rating (100 = 100% disease control, 0 = no disease control)
Source text: General protocol for preparing test suspensions for Tests A-I: the test compounds were first dissolved in acetone in an amount equal to 3% of the final volume and then suspended at the desired concentration (in ppm) in acetone and purified water (50/50 mix by volume) containing 250 ppm of the surfactant Trem® 014 (polyhydric alcohol esters). The resulting test suspensions were then used in Tests A-I. Spraying a 200 ppm test suspension to the point of run-off on the test plants was the equivalent of a rate of 500 g/ha. […] (An asterisk “*” next to the rating value indicates a 40 ppm test suspension was used.) The test suspension was sprayed to the point of run-off on wheat seedlings. The following day, the seedlings were inoculated with a spore suspension of Septoria tritici (the causal agent of wheat leaf blotch) and incubated in a saturated atmosphere at 24° C. for 48 h, and then the seedlings were moved to a growth chamber at 20° C. for 19 additional days, after which time visual disease ratings were made. […] A dash (-) indicates no test results. All results are for 200 ppm except where followed by an asterisk “*”, which indicates a 40 ppm.

| Molecule | Test E rating (100 = 100% disease control, 0 = no disease control) (Septoria nodorum) | Test B rating (100 = 100% disease control, 0 = no disease control) (Alternaria solani) | Test G rating (100 = 100% disease control, 0 = no disease control) [1] | Test H rating (100 = 100% disease control, 0 = no disease control) [2] | Test A rating (100 = 100% disease control, 0 = no disease control) (Botrytis cinerea) | Test I rating (100 = 100% disease control, 0 = no disease control) [3] | Test F rating (100 = 100% disease control, 0 = no disease control) (Septoria tritici; 40 ppm test suspension (asterisk)) | pest or weed control at 200 ppm (Septoria nodorum) | pest or weed control at 200 ppm (Alternaria solani) | pest or weed control at 200 ppm [1] | pest or weed control at 200 ppm [2] | pest or weed control at 200 ppm (Botrytis cinerea) | pest or weed control at 200 ppm [3] | pest or weed control at 200 ppm (Septoria tritici; 200 ppm test suspension) | Test F rating (100 = 100% disease control, 0 = no disease control) (Septoria tritici; 200 ppm test suspension) |
| --- | --- | --- | --- | --- | --- | --- | --- | --- | --- | --- | --- | --- | --- | --- | --- |
| 4-(2-chloro-3,5-dimethoxyphenyl)-3,6-dimethyl-5-(2,4,6-trifluorophenyl)-2H-pyran-2-one [Compound 58] | 100% | 100% | 100% | 100% | 100% | 100% | 100* % | – | – | – | – | – | – | – | – |
| COc1cc(OC)cc(-c2c(-c3ccccc3F)noc(=O)c2-c2c(F)cc(F)cc2F)c1 [Compound 23, 4-(3,5-dimethoxyphenyl)-3-(2-fluorophenyl)-5-(2,4,6-trifluorophenyl)-6H-1,2-oxazin-6-one] | – | – | – | – | – | – | – | 95% | 93% | 9% | 100% | 100% | 0% | 99% | – |
| COc1cc(OC)cc(-c2c(C)noc(=O)c2-c2c(F)cc(F)cc2F)c1 [Compound 24] | 0% | 63% | 0% | – | 98% | 99% | – | – | – | – | – | – | – | – | 99% |
| COc1cc(OC)c(Cl)c(-c2c(C)noc(=O)c2-c2c(F)cc(F)cc2F)c1 [Compound 25, 4-(2-chloro-3,5-dimethoxyphenyl)-3-methyl-5-(2,4,6-trifluorophenyl)-6H-1,2-oxazin-6-one] | – | – | – | – | – | – | – | 0% | 97% | 100% | 100% | 100% | 100% | 100% | – |
| COc1cc(OC)cc(-c2c(-c3ccccc3F)c(C)oc(=O)c2-c2ccccc2)c1 [Compound 26] | 0% | 93% | 9% | 100% | 99% | 27% | – | – | – | – | – | – | – | – | 95% |
| COc1cc(OC)cc(-c2c(-c3ccc(F)cc3F)c(C)oc(=O)c2-c2ccccc2)c1 [Compound 27] | 99% | 100% | 93% | 100% | 98% | 82% | – | – | – | – | – | – | – | – | 99% |
| COc1cccc(-c2c(-c3ccccc3F)c(C)oc(=O)c2-c2ccccc2)c1 [Compound 28] | 0% | 0% | 0% | 99% | 100% | 64% | – | – | – | – | – | – | – | – | 98% |
| COc1cc(OC)c(Cl)c(-c2c(-c3c(F)cc(F)cc3F)c(C)oc(=O)c2C)c1Cl [Compound 59] | 0% | 0% | 82% | 100% | 100% | 90% | – | – | – | – | – | – | – | – | – |
| COc1cc(OC)cc(-c2c(-c3ccccc3F)c(C)oc(=O)c2C)c1 [Compound 60] | 0% | 26% | 96% | 100% | – | 98% | – | – | – | – | – | – | – | – | 100% |
